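How tested: cells in 96-well plates exposed to compound for 48 hours at five concentrations. The concentration for 50% growth inhibition is given as GI50.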 Calls of active or inactive are those of the source. No stated cut-off is given here; in the data, active = GI50 up to about 1.1 µM and inactive = higher.
How the values were obtained:
Test in all cases: NCI anticancer screen, dose series, 48 h
786-0 = test system: 786-0
A549 = test system: A549
BT-549 = test system: BT-549
CCRF-CEM = test system: CCRF-CEM
EKVX = test system: EKVX
HL-60 = test system: HL-60
K562 = test system: K562
MDA-MB-231 = test system: MDA-MB-231
MDA-MB-435 = test system: MDA-MB-435
NCI-H226 = test system: NCI-H226
NCI-H460 = test system: NCI-H460
NCI-H522 = test system: NCI-H522
OVCAR-3 = test system: OVCAR-3
OVCAR-4 = test system: OVCAR-4
PC-3 = test system: PC-3
RPMI-8226 = test system: RPMI-8226
RXF 393 = test system: RXF 393
SF-268 = test system: SF-268
SNB-19 = test system: SNB-19
SNB-75 = test system: SNB-75

Measured: GI50

COc1ccc(-c2cc(-c3cc(F)c(Cl)cc3Cl)[nH]n2)cc1OC
inactive: 786-0 19.6 µM | A549 40.7 µM | BT-549 30.2 µM | CCRF-CEM 11.6 µM | EKVX 22.2 µM | HL-60 15.6 µM | K562 46 µM | MDA-MB-231 30.4 µM | MDA-MB-435 46.2 µM | NCI-H226 20.8 µM | NCI-H460 32.1 µM | NCI-H522 20.2 µM | OVCAR-3 15.2 µM | OVCAR-4 32.4 µM | PC-3 21.2 µM | RPMI-8226 17.3 µM | RXF 393 15.1 µM | SF-268 29.2 µM | SNB-19 49.4 µM | SNB-75 23.3 µM

O=C1/C(=C\c2cccs2)Oc2ccccc21
inactive: 786-0 77.6 µM | A549 56.9 µM | BT-549 41.2 µM | CCRF-CEM 57.7 µM | EKVX 25.9 µM | HL-60 49.8 µM | K562 74.5 µM | MDA-MB-231 71.1 µM | MDA-MB-435 98.6 µM | NCI-H226 58.1 µM | NCI-H460 53.1 µM | NCI-H522 39.8 µM | OVCAR-3 24.9 µM | OVCAR-4 31.5 µM | PC-3 43.2 µM | RPMI-8226 69.5 µM | RXF 393 65.8 µM | SF-268 51.1 µM | SNB-19 75.3 µM | SNB-75 55.7 µM

COc1cccc(NCC(=O)Nn2c(-c3ccccc3)nc3ccccc3c2=O)c1
inactive: 786-0 > 100 µM | A549 > 100 µM | BT-549 > 100 µM | CCRF-CEM 82 µM | EKVX 91.6 µM | HL-60 > 100 µM | K562 > 100 µM | MDA-MB-231 > 100 µM | MDA-MB-435 > 100 µM | NCI-H226 > 100 µM | NCI-H460 > 100 µM | NCI-H522 > 100 µM | OVCAR-3 > 100 µM | OVCAR-4 > 100 µM | PC-3 > 100 µM | RPMI-8226 > 100 µM | RXF 393 > 100 µM | SF-268 > 100 µM | SNB-19 > 100 µM | SNB-75 > 100 µM

O=c1[nH]c2cc([N+](=O)[O-])c(N/N=C/c3ccc(Cl)cc3Cl)c([N+](=O)[O-])c2[nH]1
inactive: 786-0 32.1 µM | A549 37.9 µM | BT-549 > 100 µM | CCRF-CEM 23.8 µM | EKVX > 100 µM | HL-60 > 100 µM | K562 43.6 µM | MDA-MB-231 13.1 µM | MDA-MB-435 5.21 µM | NCI-H226 58.3 µM | NCI-H460 83 µM | NCI-H522 31.1 µM | OVCAR-3 17.4 µM | OVCAR-4 13.6 µM | PC-3 > 100 µM | RPMI-8226 33.8 µM | RXF 393 18.2 µM | SF-268 75.3 µM | SNB-19 64 µM | SNB-75 > 100 µM

Cc1cccc(CC(Cc2ccc(C)cc2C(=O)O)C(=O)O)c1 (stereo not given)
inactive: 786-0 > 100 µM | A549 > 100 µM | BT-549 > 100 µM | CCRF-CEM > 100 µM | EKVX > 100 µM | HL-60 > 100 µM | K562 > 100 µM | MDA-MB-231 > 100 µM | MDA-MB-435 > 100 µM | NCI-H226 > 100 µM | NCI-H460 > 100 µM | NCI-H522 > 100 µM | OVCAR-3 > 100 µM | OVCAR-4 > 100 µM | PC-3 > 100 µM | RPMI-8226 > 100 µM | RXF 393 > 100 µM | SF-268 > 100 µM | SNB-19 > 100 µM | SNB-75 > 100 µM

From ChEMBL document CHEMBL1201862, “PubChem BioAssay data set” (2004)
